{"source": "paper PMC6374164", "about": "(Organic & biomolecular chemistry, 2019)", "key": {"HPK1": {"tested_on": "HPK1", "details": "tested at 1 μM; cited from earlier work"}, "parasite": {"tested_on": "parasite", "details": "cited from earlier work"}, "CDKL2": {"target": "T1, CDKL2 (Homo sapiens, UniProt Q92772)", "T1 sequence (Q92772 1-493)": "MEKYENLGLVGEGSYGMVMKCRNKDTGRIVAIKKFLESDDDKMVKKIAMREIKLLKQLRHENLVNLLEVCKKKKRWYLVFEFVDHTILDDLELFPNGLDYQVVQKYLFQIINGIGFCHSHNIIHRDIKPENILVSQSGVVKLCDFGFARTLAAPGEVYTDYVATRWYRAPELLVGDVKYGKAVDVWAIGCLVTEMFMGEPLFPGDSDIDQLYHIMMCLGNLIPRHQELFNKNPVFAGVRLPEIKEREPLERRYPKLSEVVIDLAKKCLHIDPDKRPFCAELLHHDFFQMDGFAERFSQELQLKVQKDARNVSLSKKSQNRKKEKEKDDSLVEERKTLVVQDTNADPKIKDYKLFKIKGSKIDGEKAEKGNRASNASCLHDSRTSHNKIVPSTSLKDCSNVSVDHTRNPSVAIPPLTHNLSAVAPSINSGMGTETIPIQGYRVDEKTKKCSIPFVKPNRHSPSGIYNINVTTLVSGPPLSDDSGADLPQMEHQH", "details": "tested at 1 μM; cited from earlier work"}, "p38-δ": {"tested_on": "p38-δ", "details": "tested at 1 μM; cited from earlier work"}, "[1]": {"assay": "Aqueous solubility by solution turbidity", "format": "physicochemical"}, "BPTF": {"tested_on": "BPTF", "details": "cited from earlier work"}, "TRKB": {"tested_on": "TRKB", "details": "tested at 1 μM; cited from earlier work"}, "CDK11": {"tested_on": "CDK11", "details": "tested at 1 μM; cited from earlier work"}, "BPTF bromodomain": {"target": "BPTF bromodomain (Homo sapiens, UniProt Q12830)", "assay": "PrOF NMR binding to 5FW-labeled BPTF bromodomain", "details": "5FW BPTF bromodomain, 19F resonance of W2824"}, "breast epithelial cells": {"tested_on": "breast epithelial cells", "details": "cited from earlier work"}, "TRKC": {"target": "TRKC (Homo sapiens, UniProt Q16288)", "sequence (Q16288 32-839)": "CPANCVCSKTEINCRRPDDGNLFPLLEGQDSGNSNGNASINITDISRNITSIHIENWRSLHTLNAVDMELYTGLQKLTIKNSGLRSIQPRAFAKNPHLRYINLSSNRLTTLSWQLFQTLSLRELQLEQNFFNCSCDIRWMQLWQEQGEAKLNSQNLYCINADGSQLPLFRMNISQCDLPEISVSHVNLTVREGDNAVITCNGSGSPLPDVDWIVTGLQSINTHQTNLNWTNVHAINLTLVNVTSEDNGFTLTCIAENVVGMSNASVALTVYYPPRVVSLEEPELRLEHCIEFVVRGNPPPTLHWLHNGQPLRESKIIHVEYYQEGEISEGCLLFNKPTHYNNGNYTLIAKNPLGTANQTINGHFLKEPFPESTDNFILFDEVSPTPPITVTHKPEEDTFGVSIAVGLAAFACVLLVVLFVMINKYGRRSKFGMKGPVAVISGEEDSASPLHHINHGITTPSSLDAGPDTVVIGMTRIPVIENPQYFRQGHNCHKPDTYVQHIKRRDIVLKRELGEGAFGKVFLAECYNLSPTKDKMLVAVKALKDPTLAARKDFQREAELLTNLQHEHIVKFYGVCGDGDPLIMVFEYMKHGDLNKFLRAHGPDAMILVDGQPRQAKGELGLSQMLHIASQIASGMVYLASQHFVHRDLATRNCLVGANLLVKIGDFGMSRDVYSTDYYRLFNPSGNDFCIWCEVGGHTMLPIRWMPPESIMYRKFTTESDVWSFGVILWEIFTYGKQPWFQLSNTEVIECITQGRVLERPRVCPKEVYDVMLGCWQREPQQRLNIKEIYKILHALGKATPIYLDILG", "details": "tested at 1 μM; cited from earlier work"}}, "data": [{"compound": "COC(=O)c1cccc(NC(=O)NC2CCN(c3ccnc(Nc4ccc(F)cc4)n3)C2)c1", "note": "(racemic) [rac-1]", "values": [{"measurement": "inhibition of HPK1", "setting": "HPK1", "value": "51–68%"}, {"measurement": "antimalarial activity", "setting": "parasite", "value": "has shown antimalarial activity"}, {"measurement": "inhibition of CDKL2", "setting": "CDKL2", "value": 82, "unit": "%"}, {"measurement": "inhibition of p38-δ", "setting": "p38-δ", "value": "51–68%"}, {"measurement": "solubility (concentration above which solution turbidity increases)", "setting": "[1]", "value": "~ 100 μM"}, {"measurement": "transcription in a BPTF-specific reporter assay", "setting": "BPTF", "value": "reducing transcription"}, {"measurement": "inhibition of TRKB", "setting": "TRKB", "value": "51–68%"}, {"measurement": "inhibition of CDK11", "setting": "CDK11", "value": "51–68%"}, {"measurement": "PrOF NMR binding behaviour of the 5FW BPTF resonance", "setting": "BPTF bromodomain", "value": "significant broadening of the fluorine resonance"}, {"measurement": "effects in breast epithelial cells", "setting": "breast epithelial cells", "value": "decreased c-MYC regulated genes, c-MYC chromatin occupancy, and led to G1 cell cycle arrest"}, {"measurement": "inhibition of TRKC", "setting": "TRKC", "value": 82, "unit": "%"}]}]}
